Like-named read-outs stand apart in the source and are kept apart here.
Columns and labels:
HeLa [1] = assay: MTT anti-proliferative (time-dependent) assay, 24, 48 and 72 h; format: cell-based, human; details: for concentration from which a notable decline in cell viability was caused / cell growth: at 24, 48 and 72 h; for reduction of cell viability: 12.5 μM and above
Procedure: (§1) HeLa, CaSki and MRC9 cells were plated in triplicate wells in 96-well flat-bottomed tissue culture plates (Nunc, Roskilde, Denmark) with 10^5 cells per mL in 100 μL culture media with working concentrations of diarylpentanoid treatment ranging from 1.6 to 100 μM. Control-treated wells contained cells incubated in media with equal volumes of DMSO (0.2%). Cells were treated for 72 h for dose-dependent cytotoxicity assays and at 24, 48 and 72 h for anti-proliferative (time-dependent) assays. In order to assess cell viability and anti-proliferative activity after diarylpentanoid treatment, the colorimetric 3-(4,5-dimethylthiazol-2-yl)-2,5-diphenyltetrazolium bromide (MTT) assay was performed as previously described with modifications. The media was aspirated and cells were incubated in 100 µL complete medium with 0.5 mg/mL MTT solution for 4 h in the dark to allow metabolism of MTT by cellular mitochondrial dehydrogenases. The excess MTT was aspirated and the formazan crystals formed were dissolved by the addition of 100 µL of DMSO. The absorbance of dark blue formazan was read at 570/650 nm wavelengths using a microplate reader (Bio-Rad Benchmark Plus Microplate Spectrophotometer, Hercules, CA, USA). Triplicate absorbance values were averaged and the effect of the compounds on growth inhibition was assessed as percentage cell viability as follows: (1) Percentage cell viability =Absorbance of Test − Absorbance of Blank (media only)/Absorbance of Control − Absorbance of Blank (media only) × 100 where, absorbance = optical density of sample, O.D.; control = untreated sample; test = treated sample.
(§2) An independent set of vehicle-treated (DMSO only) controls were included in the anti-proliferative assays to assess the proliferation of untreated cancer cells over 24, 48 and 72 h. As such, the cell viability at 24 h was used as a baseline to measure proliferation rate at 48 and 72 h. (2) Percentage cell viability = […]/Absorbance of Control (24 h) × Absorbance of Blank (media only) × 100

CaSki [2] = assay: as above; format: cell-based, human; details: for concentration from which a notable decline in cell viability was caused / effect on cell viability: at 24, 48 and 72 h; for cell viability: 6.3–100 μM
Procedure: as §1, §2

MRC9 = assay: MTT cell viability (cytotoxicity) assay on non-cancerous lung fibroblasts, 72 h; format: cell-based; details: Homo sapiens, read-out: EC50 (Mean ± S.E.M.) MRC9
Procedure: as §1
The results were analysed using GraphPad Prism version 6.00 for Windows (GraphPad Software, La Jolla, CA, USA). Using percentage cell viability Equation (1), log dose–response curves were constructed, from which the half maximal effective concentration, EC50 for each replicate was determined. Overall EC50 was determined by taking the average EC50 from three independent experiments. […] (3) Selectivity Index (SX) =EC50 (MRC9)/EC50 (Cancer cell line) × 100

HeLa [3] = assay: MTT cell viability (dose-dependent cytotoxicity) assay, 72 h; format: cell-based, human; details: for Selective Index HeLa: EC50 (MRC9)/EC50 (HeLa) × 100; for EC50: read-out: EC50 (Mean ± S.E.M.) HeLa
Procedure: (§3) Control-treated wells contained cells incubated in media with equal volumes of DMSO (0.2%). […] The media was aspirated and cells were incubated in 100 µL complete medium with 0.5 mg/mL MTT solution for 4 h in the dark to allow metabolism of MTT by cellular mitochondrial dehydrogenases. The excess MTT was aspirated and the formazan crystals formed were dissolved by the addition of 100 µL of DMSO. The absorbance of dark blue formazan was read at 570/650 nm wavelengths using a microplate reader (Bio-Rad Benchmark Plus Microplate Spectrophotometer, Hercules, CA, USA). Triplicate absorbance values were averaged and the effect of the compounds on growth inhibition was assessed as percentage cell viability as follows: […] The results were analysed using GraphPad Prism version 6.00 for Windows (GraphPad Software, La Jolla, CA, USA). […] Overall EC50 was determined by taking the average EC50 from three independent experiments.

CaSki [4] = assay: as above; format: cell-based, human; details: for Selective Index CaSki: EC50 (MRC9)/EC50 (CaSki) × 100; for EC50: read-out: EC50 (Mean ± S.E.M.) CaSki
Procedure: as §3

[5] = MRC9, MTT, 72 h, non-cancerous lung fibroblasts
[6] = Homo sapiens, Ca-Ski, MTT, 72 h

Structure (SMILES) | concentration from which a notable decline in cell viability was caused (HeLa [1]) | concentration from which a notable decline in cell viability was caused (CaSki [2]) | EC50 (MRC9; [5]) | Selective Index HeLa (HeLa [3]) | EC50 (HeLa [3]; Homo sapiens, HeLa, MTT, 72 h) | Selective Index CaSki (CaSki [4]) | EC50 (CaSki [4]; [6]) | cell growth (HeLa [1]; onwards from 25 μM) | effect on cell viability (CaSki [2]; 12.5 μM onwards) | other results
COc1cc(/C=C/C(=O)CC(=O)/C=C/c2ccc(O)c(OC)c2)ccc1O [Curcumin] | 50 µM | 25 µM | 26.6 ± 3.2 µM | 100 | 26.7 ± 14.3 µM | 168 | 15.8 ± 3.1 µM | – | – | cell growth (HeLa [1]; onwards from 50 μM): below 50%; effect on cell viability (CaSki [2]; from 25 μM onwards): significant decline in cell viability; inhibition at 50 µM (HeLa [3]; Homo sapiens, HeLa, beginning at 50 μM, 72 h, read-out: growth inhibition): ~50%; inhibition at 25 µM (CaSki [4]; Homo sapiens, Ca-Ski, CaSki, 25 μM, 72 h, read-out: growth inhibition): 50%
COc1cc(C=CC(=O)C=Cc2ccc(O)c(OC)c2)ccc1O [MS13, 1,5-bis(4-hydroxy-3-methoxyphenyl)-1,4-pentadiene-3-one] | – | – | – | 145 | – | 346 | – | – | – | dosage from which reduction in cell viability was significantly higher at 48 and 72 h than at 24 h (HeLa [1]): 12.5 µM; reduction of cell viability (HeLa [1]; 24 h): 72%; reduction of cell viability (HeLa [1]; 48 h): approximately 91%; reduction of cell viability (HeLa [1]; 72 h): ~95%; dosage from which reduction in cell viability was significantly higher at 48 and 72 h than at 24 h (CaSki [2]): 6.3 µM; cell viability (CaSki [2]; 48 h): 21%; cell viability (CaSki [2]; 72 h): 9%; viability at 12.5 µM (CaSki [2]; Homo sapiens, Ca-Ski, 12.5 μM, 24 h, read-out: decline of cell viability): ~50%; EC50 (MRC9; MRC9, 72 h): 9.7 ± 2.4 µM; cell viability (HeLa [3]; HeLa, beyond 12.5 μM, 72 h): less than 10%; EC50 (HeLa [3]; Homo sapiens, HeLa, 72 h): 6.7 ± 2.4 µM; viability at 12.5 µM (HeLa [3]; Homo sapiens, HeLa, 12.5 μM, 72 h): ~12%; decrease in cell growth (CaSki [4]; CaSki, 3.1 μM, 72 h): 50%; cell growth after treatment (CaSki [4]; CaSki, 6.3–100 μM, 72 h): around 10%; EC50 (CaSki [4]; Homo sapiens, Ca-Ski, 72 h): 2.8 ± 0.4 µM
O=C(C=Cc1cccc(F)c1)C=Cc1cccc(F)c1 [MS40E, 1,5-bis(3-fluorophenyl)-1,4-pentadiene-3-one] | 25 µM | 12.5 µM | 31.7 ± 3.2 µM | 204 | 15.5 ± 1.9 µM | 906 | 3.5 ± 0.4 µM | below 50% | significant decline in cell viability | inhibition at 25 µM (HeLa [3]; Homo sapiens, HeLa, beginning at 25 μM, 72 h, read-out: growth inhibition): ~75%; inhibition at 6.3 µM (CaSki [4]; Homo sapiens, Ca-Ski, CaSki, 6.3 μM, 72 h, read-out: growth inhibition): 80%; inhibition at 100 µM (CaSki [4]; Homo sapiens, Ca-Ski, CaSki, 100 μM, 72 h, read-out: growth inhibition): 90%
O=C1C(=Cc2cccc(F)c2)CCCC1=Cc1cccc(F)c1 [MS49, 2,6-bis(3-fluorobenzylidene)cyclohexanone] | 25 µM | 12.5 µM | 16.4 ± 4.4 µM | 199 | 8.3 ± 4.6 µM | 273 | 6 ± 2.9 µM | below 50% | significant decline in cell viability | inhibition at 12.5 µM (HeLa [3]; Homo sapiens, HeLa, beginning at 12.5 μM, 72 h, read-out: growth inhibition): ~75%; cell viability (CaSki [4]; CaSki, 25–100 μM, 72 h): around 10%; viability at 12.5 µM (CaSki [4]; Homo sapiens, Ca-Ski, CaSki, 12.5 μM, 72 h): 20%
